Assay results published in paper PMC9246766 (Pharmaceutical research, 2022).
pIC50: −log10 of the molar value.

target: T1, OCT3 (Homo sapiens, UniProt O75751); assay: High throughput screen: inhibition of OCT3-mediated ASP+ uptake in HEK-293 cells stably expressing OCT3; assay type: cell-based; details: not given
T1 sequence (O75751 1-556): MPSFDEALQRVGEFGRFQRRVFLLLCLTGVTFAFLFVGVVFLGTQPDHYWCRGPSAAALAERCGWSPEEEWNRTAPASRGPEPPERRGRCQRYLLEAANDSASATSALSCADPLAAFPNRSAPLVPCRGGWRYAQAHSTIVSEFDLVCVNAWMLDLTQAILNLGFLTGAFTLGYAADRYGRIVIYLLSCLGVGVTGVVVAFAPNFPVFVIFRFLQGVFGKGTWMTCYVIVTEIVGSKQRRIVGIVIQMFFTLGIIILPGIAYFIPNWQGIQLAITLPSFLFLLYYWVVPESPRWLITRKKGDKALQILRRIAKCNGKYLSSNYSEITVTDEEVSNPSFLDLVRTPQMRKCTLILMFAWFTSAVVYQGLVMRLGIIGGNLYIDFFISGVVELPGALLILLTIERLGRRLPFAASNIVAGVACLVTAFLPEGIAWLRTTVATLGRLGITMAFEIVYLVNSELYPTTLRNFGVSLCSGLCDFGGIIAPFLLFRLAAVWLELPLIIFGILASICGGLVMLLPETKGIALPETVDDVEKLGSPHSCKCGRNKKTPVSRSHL

SMILES | pIC50
CC[C@H]1CN2CCc3cc(OC)c(OC)cc3[C@@H]2C[C@@H]1C[C@H]1NCCc2cc(OC)c(OC)cc21 [emetine] | > 5.30
Cc1onc(-c2ccccc2)c1-c1ccc(S(N)(=O)=O)cc1 [valdecoxib] | 4.76

Results, then the molecule that gave them:

pIC50 | SMILES
> 5.30 | COCCCOc1ccnc(C[S+]([O-])c2nc3ccccc3[nH]2)c1C (stereo not drawn) [rabeprazole]
5.15 | CCCNCC(O)COc1ccccc1C(=O)CCc1ccccc1 (stereo not drawn) [propafenone]

same assay, conditions: HEK293

SMILES | inhibition at 20 µM
CC[C@H]1CN2CCc3cc(OC)c(OC)cc3[C@@H]2C[C@@H]1C[C@H]1NCCc2cc(OC)c(OC)cc21 [emetine] | 82.7%
Cc1onc(-c2ccccc2)c1-c1ccc(S(N)(=O)=O)cc1 [valdecoxib] | 53.6%

Other lines, results leading:

inhibition at 20 µM | SMILES
81.6% | CCCc1nc2c(C)cc(-c3nc4ccccc4n3C)cc2n1Cc1ccc(-c2ccccc2C(=O)O)cc1 [telmisartan]
87.3% | COCCCOc1ccnc(C[S+]([O-])c2nc3ccccc3[nH]2)c1C (stereo not drawn) [rabeprazole]
74% | CCCNCC(O)COc1ccccc1C(=O)CCc1ccccc1 (stereo not drawn) [propafenone]

target: T1, OCT3; assay: IC50 determination against OCT3-mediated ASP+ uptake in HEK-293 cells overexpressing OCT3; assay type: cell-based; details: not given

SMILES | pIC50
COc1ccc(Cc2nccc3cc(OC)c(OC)cc23)cc1OC [papaverine] | 5.39
N=C(N)NC(=O)c1nc(Cl)c(N)nc1N [amiloride] | 4.84
COc1cc2nc(N3CCN(C(=O)C4COc5ccccc5O4)CC3)nc(N)c2cc1OC (stereo not drawn) [doxazosin] | 5.25

Second part, the molecule after the results:

pIC50 | SMILES
5.43 | [H]/N=C(\N/C(=N/[H])NCCCCCCNC(=N)NC(=N)Nc1ccc(Cl)cc1)Nc1ccc(Cl)cc1 [chlorhexidine]
5.49 | N=C(N)N/N=C/c1c(Cl)cccc1Cl [guanabenz]
3.75 | CNCCCN1c2ccccc2CCc2ccccc21 [desipramine]
4.71 | COc1ccccc1OCCNCC(O)COc1cccc2[nH]c3ccccc3c12 (stereo not drawn) [carvedilol]
4.92 | CCCc1nc2c(C)cc(-c3nc4ccccc4n3C)cc2n1Cc1ccc(-c2ccccc2C(=O)O)cc1 [telmisartan]
5.62 | CCCNCC(O)COc1ccccc1C(=O)CCc1ccccc1 (stereo not drawn) [propafenone]

same assay, conditions: HEK293, read-out: Inhibition of OCT3 activity at 20 μM

SMILES | inhibition at 20 µM
CNCCCN1c2ccccc2CCc2ccccc21 [desipramine] | < 50%

tested on: not given; assay: not given; details: cardiovascular / CNS related; ref FDA product insert; cited from earlier work

SMILES | FDA product insert: warnings, precautions and major adverse reactions
COc1cc(Cc2cnc(N)nc2N)cc(OC)c1OC [trimethoprim] | warnings and precautions related to cardiovascular side-effects
CCCc1nc2c(C)cc(-c3nc4ccccc4n3C)cc2n1Cc1ccc(-c2ccccc2C(=O)O)cc1 [telmisartan] | No warnings and precautions regarding to cardiovascular, CNS
COCCCOc1ccnc(C[S+]([O-])c2nc3ccccc3[nH]2)c1C (stereo not drawn) [rabeprazole] | No warnings and precautions regarding to cardiovascular, CNS

same assay, conditions: cardiovascular / CNS related; ref FDA product insert; listed as Trimethoprim; cited from earlier work

SMILES | FDA product insert: warnings, precautions and major adverse reactions
COc1cc(Cc2cnc(N)nc2N)cc(OC)c1OC [trimethoprim] | Post marketing experience: QT prolongation resulting in ventricular tachycardia and torsade de pointes

same assay, conditions: ref Pubmed ID of Table SII; cited from earlier work

SMILES | Neurological Effects (from Literature)
COc1cc(Cc2cnc(N)nc2N)cc(OC)c1OC [trimethoprim] | Trimethoprim/sulfamethaxazole (TMP-SMX) has been reported to be associated with encephalopathy and psychosis
CCCc1nc2c(C)cc(-c3nc4ccccc4n3C)cc2n1Cc1ccc(-c2ccccc2C(=O)O)cc1 [telmisartan] | Neuroprotective effect, across bbb
Cc1onc(-c2ccccc2)c1-c1ccc(S(N)(=O)=O)cc1 [valdecoxib] | Neuroprotective effect, across bbb

same assay, conditions: stated in discussion; ref Table SII, 60; cited from earlier work

SMILES | Neurological side effects
COc1cc(Cc2cnc(N)nc2N)cc(OC)c1OC [trimethoprim] | neurological side effects

tested on: not given; assay: not given; details: total maximum plasma concentration; ref http://www.micromedexsolutions.com/; cited from earlier work

SMILES | Cmax
COc1cc(Cc2cnc(N)nc2N)cc(OC)c1OC [trimethoprim] | 5900 nM
Cc1ccc(NC(=O)c2ccc(CN3CCN(C)CC3)cc2)cc1Nc1nccc(-c2cccnc2)n1 [imatinib] | 1200 nM
CCCc1nc2c(C)cc(-c3nc4ccccc4n3C)cc2n1Cc1ccc(-c2ccccc2C(=O)O)cc1 [telmisartan] | 2800 nM
CC[C@H]1CN2CCc3cc(OC)c(OC)cc3[C@@H]2C[C@@H]1C[C@H]1NCCc2cc(OC)c(OC)cc21 [emetine] | 600 nM
COCCCOc1ccnc(C[S+]([O-])c2nc3ccccc3[nH]2)c1C (stereo not drawn) [rabeprazole] | 1300 nM
Cc1onc(-c2ccccc2)c1-c1ccc(S(N)(=O)=O)cc1 [valdecoxib] | 2200 nM

tested on: not given; assay: not given; details: plasma protein binding used for unbound CMAX; source not given; cited from earlier work

SMILES | Protein binding
CCCc1nc2c(C)cc(-c3nc4ccccc4n3C)cc2n1Cc1ccc(-c2ccccc2C(=O)O)cc1 [telmisartan] | 99.5%
CC[C@H]1CN2CCc3cc(OC)c(OC)cc3[C@@H]2C[C@@H]1C[C@H]1NCCc2cc(OC)c(OC)cc21 [emetine] | 90%
COCCCOc1ccnc(C[S+]([O-])c2nc3ccccc3[nH]2)c1C (stereo not drawn) [rabeprazole] | 96%
Cc1onc(-c2ccccc2)c1-c1ccc(S(N)(=O)=O)cc1 [valdecoxib] | 98%

target: T1, OCT3; assay: IC50 determination against OCT3-mediated [14C]metformin uptake in HEK-293 cells overexpressing OCT3; assay type: cell-based; details: not given

SMILES | pIC50
COc1ccc(Cc2nccc3cc(OC)c(OC)cc23)cc1OC [papaverine] | 5.92
N=C(N)NC(=O)c1nc(Cl)c(N)nc1N [amiloride] | 5.52

Next, values leading:

pIC50 | SMILES
6.40 | [H]/N=C(\N/C(=N/[H])NCCCCCCNC(=N)NC(=N)Nc1ccc(Cl)cc1)Nc1ccc(Cl)cc1 [chlorhexidine]
5.96 | N=C(N)N/N=C/c1c(Cl)cccc1Cl [guanabenz]
5.41 | CCCc1nc2c(C)cc(-c3nc4ccccc4n3C)cc2n1Cc1ccc(-c2ccccc2C(=O)O)cc1 [telmisartan]
